Experimental data: EP2540163A1, “Nematocide N-cyclopropyl-sulfonylamide derivatives” (Bayer CropScience AG, priority 2011, dated 2013)

Test: logP by HPLC on reversed-phase column (C 18), EEC Directive 79/831 Annex V.A8, Method B (0.1% aqueous formic acid / acetonitrile, 40°C)
Assay type: physicochemical
Conditions: c18 reversed-phase hplc; LogP method B: HPLC reversed-phase C 18, 40°C, 0.1% aqueous formic acid / acetonitrile
Method: Calibration was carried out using unbranched alkan-2-ones (having 3 to 16 carbon atoms) with known logP values (determination of the logP values by the retention times using linear interpolation between two successive alkanones).

Row | SMILES | chromatographic logP
1 | Cc1cc(C(=O)N(C2CC2)S(=O)(=O)c2cccc(Cl)c2Cl)c(C)o1 [compound 5] | 3.8
2 | Cc1cc(C(=O)N(C2CC2)S(=O)(=O)c2ccc(Cl)c(Cl)c2Cl)c(C)o1 [compound 6] | 4.4
3 | O=C(c1ccsc1I)N(C1CC1)S(=O)(=O)c1cccc(Cl)c1Cl [compound 19] | 3.8
4 | COc1cscc1C(=O)N(C1CC1)S(=O)(=O)c1cccc(Cl)c1Cl [compound 25] | 3.3
5 | COc1cscc1C(=O)N(C1CC1)S(=O)(=O)c1ccc(Cl)c(Cl)c1Cl [compound 27] | 3.9
6 | Cn1cc(C(=O)N(C2CC2)S(=O)(=O)c2cccc(Cl)c2Cl)c(C(F)(F)F)c1 [compound 36] | 3.3
7 | Cn1cc(C(=O)N(C2CC2)S(=O)(=O)c2ccc(Cl)c(Cl)c2Cl)c(C(F)(F)F)c1 [compound 37] | 3.9
8 | Cc1cc(C(=O)N(C2CC2)S(=O)(=O)c2cccc(Cl)c2Cl)nn1C [compound 74] | 2.7
9 | Cc1cc(C(=O)N(C2CC2)S(=O)(=O)c2ccc(Cl)c(Cl)c2Cl)nn1C [compound 75] | 3.3
10 | CC(C)c1nn(C)c(F)c1C(=O)N(C1CC1)S(=O)(=O)c1cccc(Cl)c1Cl [compound 93] | 3.6
11 | CC(C)c1nn(C)c(F)c1C(=O)N(C1CC1)S(=O)(=O)c1ccc(Cl)cc1Cl [compound 96] | 3.8
12 | CC(C)c1nn(C)c(F)c1C(=O)N(C1CC1)S(=O)(=O)c1ccc(C(F)(F)F)cc1Cl [compound 97] | 4
13 | Cn1nc(-c2ccccc2)c(C(=O)N(C2CC2)S(=O)(=O)c2ccc(Cl)c(Cl)c2Cl)c1F [compound 100] | 4.3
14 | Cn1nc(-c2ccccc2)c(C(=O)N(C2CC2)S(=O)(=O)c2cccc(Cl)c2Cl)c1F [compound 101] | 3.7
15 | Cn1nc(C(F)F)c(C(=O)N(C2CC2)S(=O)(=O)c2ccccc2Cl)c1F [compound 103] | 2.8
16 | Cn1nc(C(F)F)c(C(=O)N(C2CC2)S(=O)(=O)c2cccc(Cl)c2Cl)c1F [compound 104] | 3.2
17 | Cn1nc(C(F)F)c(C(=O)N(C2CC2)S(=O)(=O)c2ccc(Cl)cc2Cl)c1F [compound 105] | 3.4
18 | Cn1nc(C(F)(F)F)c(C(=O)N(C2CC2)S(=O)(=O)c2ccc(Cl)c(Cl)c2Cl)c1F [compound 108] | 4.1
19 | CC(F)c1nn(C)cc1C(=O)N(C1CC1)S(=O)(=O)c1cccc(Cl)c1Cl (stereo not shown) [compound 119] | 2.8
20 | Cn1cc(C(=O)N(C2CC2)S(=O)(=O)c2cccc(Cl)c2Cl)c(C(F)F)n1 [compound 221] | 2.9
21 | Cn1nc(C2CC2)c(C(=O)N(C2CC2)S(=O)(=O)c2ccc(Cl)c(Cl)c2Cl)c1Cl [compound 223] | 4.2
22 | Cn1nc(C2CC2)c(C(=O)N(C2CC2)S(=O)(=O)c2ccc(Cl)c(Cl)c2Cl)c1F [compound 224] | 3.9
23 | Cn1nc(C2CC2)c(C(=O)N(C2CC2)S(=O)(=O)c2cccc(Cl)c2Cl)c1Cl [compound 225] | 4.7
24 | Cc1nn(C)c(C#N)c1C(=O)N(C1CC1)S(=O)(=O)c1ccc(Cl)c(Cl)c1Cl [compound 228] | 3.9
25 | Cc1nn(C)c(N(C)C)c1C(=O)N(C1CC1)S(=O)(=O)c1ccc(Cl)c(Cl)c1Cl [compound 229] | 3.6

Row | SMILES | chromatographic logP
26 | COc1c(C(=O)N(C2CC2)S(=O)(=O)c2ccc(Cl)c(Cl)c2Cl)c(C)nn1C [compound 230] | 3.2
27 | Cc1nn(C)c(Oc2ccc(Cl)cc2)c1C(=O)N(C1CC1)S(=O)(=O)c1ccccc1Cl [compound 261] | 3.6
28 | COc1nn(C)c(Cl)c1C(=O)N(C1CC1)S(=O)(=O)c1cccc(Cl)c1Cl [compound 278] | 3.2
29 | COc1nn(C)c(Cl)c1C(=O)N(C1CC1)S(=O)(=O)c1ccc(Oc2ccccc2)cc1 [compound 280] | 3.8
30 | COc1nn(C)c(Cl)c1C(=O)N(C1CC1)S(=O)(=O)c1ccc(Cl)c(Cl)c1Cl [compound 282] | 3.8
31 | COc1nn(C)c(Cl)c1C(=O)N(C1CC1)S(=O)(=O)c1ccc(Oc2ccc(Br)cc2)cc1 [compound 284] | 4.3
32 | CCCOc1nn(C)cc1C(=O)N(C1CC1)S(=O)(=O)c1ccc(Oc2ccc(Cl)c(C(F)(F)F)c2)cc1Br [compound 302] | 4.9
33 | CCCOc1nn(C)cc1C(=O)N(C1CC1)S(=O)(=O)c1ccc(Oc2ccc(Br)c(Cl)c2)cc1Br [compound 304] | 5
34 | CCCOc1nn(C)cc1C(=O)N(C1CC1)S(=O)(=O)c1ccc(Oc2cc(Cl)cc(Cl)c2)cc1Br [compound 305] | 5.1
35 | Cn1nc(C(F)(F)F)c(C(=O)N(C2CC2)S(=O)(=O)c2cccc(Cl)c2Cl)c1F [compound 357] | 3.3
36 | Cn1nc(C(F)(F)F)c(C(=O)N(C2CC2)S(=O)(=O)c2c(Cl)cccc2Cl)c1F [compound 360] | 3.1
37 | Cn1nc(C(F)(F)F)c(C(=O)N(C2CC2)S(=O)(=O)c2cc(Cl)c(Cl)cc2Cl)c1F [compound 361] | 4
38 | Cn1nc(C(F)(F)F)c(C(=O)N(C2CC2)S(=O)(=O)c2ccc(F)cc2Cl)c1F [compound 362] | 3.1
39 | Cn1nc(C(F)(F)F)c(C(=O)N(C2CC2)S(=O)(=O)c2c(Cl)cc(Cl)cc2Cl)c1F [compound 363] | 3.7
40 | Cc1cc(Cl)cc(Cl)c1S(=O)(=O)N(C(=O)c1c(C(F)(F)F)nn(C)c1F)C1CC1 [compound 367] | 2.6
41 | Cn1nc(C(F)(F)F)c(C(=O)N(C2CC2)S(=O)(=O)c2ccc(Oc3ncc(C(F)(F)F)cc3Cl)cc2)c1F [compound 372] | 4.2
42 | CCc1nn(C)c(F)c1C(=O)N(C1CC1)S(=O)(=O)c1cc(Cl)cc(Cl)c1 [compound 376] | 3.9
43 | CCc1nn(C)c(F)c1C(=O)N(C1CC1)S(=O)(=O)c1ccc(Cl)c(Cl)c1 [compound 378] | 3.8
44 | CCc1nn(C)c(F)c1C(=O)N(C1CC1)S(=O)(=O)c1c(Cl)cc(Cl)cc1Cl [compound 379] | 3.6
45 | CCc1nn(C)c(F)c1C(=O)N(C1CC1)S(=O)(=O)c1c(C)nn(C)c1Cl [compound 382] | 2.3
46 | CCc1nn(C)c(F)c1C(=O)N(C1CC1)S(=O)(=O)c1cc(C(F)(F)F)ccc1Cl [compound 384] | 3.5
47 | CCc1nn(C)c(F)c1C(=O)N(C1CC1)S(=O)(=O)c1ccc(Br)cc1Cl [compound 385] | 3.4
48 | CCc1nn(C)c(F)c1C(=O)N(C1CC1)S(=O)(=O)c1c(Cl)cc(C(F)(F)F)cc1Cl [compound 387] | 3.8
49 | CCc1nn(C)c(F)c1C(=O)N(C1CC1)S(=O)(=O)c1ccc(Oc2ccc(Cl)cc2)cc1 [compound 391] | 4.2
50 | COc1nn(C)cc1C(=O)N(C1CC1)S(=O)(=O)c1c(Cl)cc(C(F)(F)F)cc1Cl [compound 396] | 3

Row | SMILES | chromatographic logP
51 | Cn1nc(C(F)(F)F)c(C(=O)N(C2CC2)S(=O)(=O)c2c(Cl)sc(Cl)c2Br)c1F [compound 436] | 3.9
52 | CCc1nn(C)c(F)c1C(=O)N(C1CC1)S(=O)(=O)c1c(Cl)sc(Cl)c1Br [compound 437] | 3.8
53 | CCc1nn(C)c(F)c1C(=O)N(C1CC1)S(=O)(=O)c1csc(Cl)c1Cl [compound 438] | 4
54 | COc1nn(C)cc1C(=O)N(C1CC1)S(=O)(=O)c1csc(Cl)c1Cl [compound 440] | 3.1
55 | Cc1nn(C)c(Cl)c1S(=O)(=O)N(C(=O)c1c(C(F)(F)F)nn(C)c1F)C1CC1 [compound 443] | 2.6
56 | COc1nn(C)cc1C(=O)N(C1CC1)S(=O)(=O)c1c(C)nn(C)c1Cl [compound 444] | 1.7
57 | CCc1nn(C)c(F)c1C(=O)N(C1CC1)S(=O)(=O)c1cnc(Cl)c(Br)c1 [compound 448] | 3.5
58 | COc1nn(C)cc1C(=O)N(C1CC1)S(=O)(=O)c1cnc(Cl)c(Br)c1 [compound 449] | 2
59 | COc1nn(C)cc1C(=O)N(C1CC1)S(=O)(=O)c1c(Cl)cc(Cl)cc1Cl [compound 461] | 2.7
60 | COc1nn(C)cc1C(=O)N(C1CC1)S(=O)(=O)c1ccc(Oc2cccc(Cl)c2)cc1Br [compound 468] | 3.7
61 | COc1nn(C)cc1C(=O)N(C1CC1)S(=O)(=O)c1ccc(Oc2ccc(Cl)cc2Cl)cc1Br [compound 477] | 4.1
62 | COc1nn(C)cc1C(=O)N(C1CC1)S(=O)(=O)c1ccc(Oc2ccc(Cl)c(Cl)c2)cc1Br [compound 478] | 4.2
63 | COc1nn(C)cc1C(=O)N(C1CC1)S(=O)(=O)c1ccc(Oc2ccc(Br)c(Cl)c2)cc1Br [compound 480] | 4.2
64 | COc1nn(C)cc1C(=O)N(C1CC1)S(=O)(=O)c1ccc(Oc2cc(Cl)cc(Cl)c2)cc1Br [compound 481] | 4.3
65 | CCOc1nn(C)cc1C(=O)N(C1CC1)S(=O)(=O)c1ccc(Oc2ccc(C)nc2)cc1Cl [compound 525] | 2.2
66 | CCOc1nn(C)cc1C(=O)N(C1CC1)S(=O)(=O)c1ccc(Oc2ccc(OC)c(OC)c2)cc1Cl [compound 527] | 3.2
67 | CCOc1nn(C)cc1C(=O)N(C1CC1)S(=O)(=O)c1ccc(Oc2ccc(OC)c(OC)c2)c(Cl)c1 [compound 528] | 3.5
68 | CCOc1nn(C)cc1C(=O)N(C1CC1)S(=O)(=O)c1ccc(Oc2ccc(OC)cc2)cc1Cl [compound 529] | 3.5
69 | CCOc1nn(C)cc1C(=O)N(C1CC1)S(=O)(=O)c1ccc(Oc2ccccc2)cc1Cl [compound 530] | 3.6
70 | CCOc1nn(C)cc1C(=O)N(C1CC1)S(=O)(=O)c1ccc(Oc2ccc(OC)cc2)c(Cl)c1 [compound 531] | 3.8
71 | CCOc1nn(C)cc1C(=O)N(C1CC1)S(=O)(=O)c1ccc(Oc2cccc(N(C)C)c2)cc1Cl [compound 532] | 3.8
72 | CCOc1nn(C)cc1C(=O)N(C1CC1)S(=O)(=O)c1ccc(Oc2ccccc2)c(Cl)c1 [compound 533] | 3.9
73 | CCOc1nn(C)cc1C(=O)N(C1CC1)S(=O)(=O)c1ccc(Oc2cccc(Br)c2)cc1Cl [compound 534] | 3.9
